In PMC7093416, “Selective USP7 inhibition elicits cancer cell killing through a p53-dependent mechanism” (Scientific Reports, 2020):

Columns and labels:
[1] = test system: p53 target genes; assay: Quantitative real-time PCR of p53 target genes in MCF7 cells; assay type: cell-based; details: 1 μM, 24 hours
Procedure: After cell treatment under the indicated conditions, total cellular RNA was purified using a Qiagen RNEasy kit. 1 μg of RNA was then converted to cDNA using SuperScript III First-Strand Synthesis (Invitrogen). cDNA from each sample was then combined with the indicated TaqMan probe and 2x MasterMix in a 96-well Fast RT-PCR plate (Invitrogen). qPCR was performed on an Invitrogen 7500 Fast qPCR instrument and gene expression was calculated using the 2^-∆∆Ct method on Graphpad Prism.

[2] = target: T1, USP7 catalytic domain (Homo sapiens, UniProt Q93009); assay: Intact MS / CE-MS labeling of purified USP7 catalytic domain; assay type: binding; details: 2.5-fold molar excess compound
T1 construct: catalytic domain (208–560) used were cloned as described; inferred from Ni-NTA purification; made in house; host or cells: E. coli BL21 (DE3)
Procedure: Purified USP7 catalytic domain was diluted to 20 μM in 10 μL labeling buffer (20 mM HEPES pH 7.5, 150 mM NaCl, 1 mM TCEP) and incubated for the indicated times with 50 μM (2.5×) compound. After incubation, samples were flash frozen in liquid nitrogen and stored at −80 °C until analysis.
Intact mass analysis was performed by injecting 5 µg USP7 catalytic domain onto a self-packed reversed phase column (1/32” O.D. × 500 um I.D., 5 cm of POROS 10R2 resin). After desalting, protein was eluted with an HPLC gradient (0–100% B in 4 minutes, A = 0.2 M acetic acid in water, B = 0.2 M acetic acid in acetonitrile, flow rate ~30 µL/min) into an LTQ ion trap mass spectrometer (ThermoFisher Scientific, San Jose, CA). Mass spectra were processed using MagTran1.03b2[52].
Peptides were desalted using SP3[53], dried by vacuum centrifugation, and reconstituted in 1% formic acid/50% acetonitrile with 100 mM ammonium acetate. Peptides were then analyzed by CE-MS using a ZipChip CE system and autosampler (908 Devices, Boston, MA) interfaced to a QExactive HF mass spectrometer (ThermoFisher Scientific, San Jose, CA). Peptide solution was loaded for 30 seconds, and the mass spectrometer was operated in data dependent mode and subjected the 5 most abundant ions in each MS scan (60k resolution, 3E6 target, lock mass enabled) to MS/MS (15k resolution, 1E5 target, 100 ms max inject time). […]

[3] = test system: TC32 cells; assay: Cell viability (CellTiter-Glo) in TC32 cells expressing sgRNA (TP53-KO vs control); assay type: cell-based; details: 3 days
Procedure: Cells were plated in 384-well culture-treated plates and allowed to settle overnight. After drug treament and appropriate incubation time, cell viability was assessed using the CellTiter-Glo Luminescent Cell Viability Assay (Promega). Luminescence was read on a Fluostar Omega Reader (BMG Labtech).

[4] = target: T2, RPS19 (Homo sapiens, UniProt P39019); assay: XL177A-DTB chemoproteomic profiling with XL177A competition, RPS19; assay type: binding; details: RPS19 reporter ion intensity
T2 construct: endogenous in cells; host or cells: HEK 293AD lysate
Procedure: HEK 293AD cells were lysed as described above, and the lysate was cleared by centrifugation. Samples were diluted to 10 mg/mL, and 200 μL lysate (2 mg protein total) was incubated with the indicated concentrations of XL177A for 4 hours at RT, then 2 μM of WH114A for 4 additional hours. SDS was added to a final concentration of 1.2% (27.2 μL of a 10% stock), and denatured by heating to 80 °C for 5 minutes. After cooling to RT, 1125 μL 1X PBS was added to dilute the final SDS concentration to 0.2%. 50 μL streptavidin agarose slurry was added to each sample, followed by incubation at RT for 3 hours. After streptavidin enrichment, samples were washed vigorously (2×0.2% SDS, 3x PBS, 3x ddH2O). After the final wash, all supernatant was removed using a flat-bottom tip, and the resin was flash frozen and stored at −80 °C until workup for TMT labeling.
To remove rapigest, recovered supernatants were acidified with 10% TFA, incubated at 37 °C for 45 minutes, and centrifuged at 14,000 rpm for 15 minutes at 4 °C. Peptides were then desalted by C18, and dried by vacuum centrifugation. Dried peptides were reconstituted in 50 mM pH8.0 TEAB and labeled with TMT reagent at RT for 1 hour. TMT reactions were pooled and treated with hydroxylamine according to the manufacturer’s instructions. Peptide mixtures were then dried, reconstituted in 50 mM ammonium bicarbonate and desalted by SP3[53]. Eluted peptides were then analyzed by nanoflow LC-MS/MS as described[64] with a NanoAcquity UPLC system (Waters, Milford, MA) interfaced to a QExactive HF mass spectrometer (Thermofisher Scientific, San Jose, CA). TMT labeled peptides were injected onto a precolumn (4 cm POROS 10R2, Applied Biosystems, Framingham, MA), resolved on an analytical column (30 µm I.D. × 50 cm packed with 5 µm Monitor C18) and introduced to the mass spectrometer by ESI (spray voltage = 3.5 kV, flow rate ~30 nL/min). The mass spectrometer was operated in data dependent mode such that the 15 most abundant ions in each MS scan (m/z 300–2000, 120 K resolution, target = 3E6, lock mass for 445.120025 enabled) were subjected to MS/MS (m/z 100–2000, 30 K resolution, target = 1E5, max fill time = 100 ms). Dynamic exclusion was selected with a repeat count of 1 and an exclusion time of 30 seconds. MS/MS data was extracted to.mgf using mulitplierz scripts[54],[55] and searched against a forward-reverse human NCBI refseq database using Mascot version 2.6. Search parameters specified fixed carbamidomethylation of cysteine, fixed N-terminal and lysine TMT labelling, and variable oxidation (methionine). Additional multiplierz scripts were used to filter results to 1% FDR and derive protein-level aggregate reporter ion intensities using peptides mapping uniquely into the genome.

[5] = XL177A-DTB pulldown, HEK293AD lysate pre-treated 100nM XL177A
[6] = XL177A-DTB pulldown, HEK293AD lysate pre-treated 1uM XL177A
[7] = XL177A-DTB pulldown, HEK293AD lysate pre-treated 10uM XL177A
[8] = average of Run 1 and Run 2, 100nM XL177A
[9] = average of Run 1 and Run 2, 1uM XL177A
[10] = average of Run 1 and Run 2, 10uM XL177A

T1 sequence (Q93009 208-560): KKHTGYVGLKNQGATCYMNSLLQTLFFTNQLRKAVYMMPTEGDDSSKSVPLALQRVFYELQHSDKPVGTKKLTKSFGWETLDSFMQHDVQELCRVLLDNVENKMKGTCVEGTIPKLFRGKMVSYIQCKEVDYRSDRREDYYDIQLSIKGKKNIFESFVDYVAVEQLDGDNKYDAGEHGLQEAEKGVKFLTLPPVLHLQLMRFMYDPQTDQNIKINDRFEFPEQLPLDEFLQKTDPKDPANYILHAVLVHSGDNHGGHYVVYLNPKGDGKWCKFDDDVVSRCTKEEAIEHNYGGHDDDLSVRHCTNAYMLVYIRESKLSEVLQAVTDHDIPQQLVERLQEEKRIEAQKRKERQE

`CN1CCN(CCC(=O)Nc2ccc3c(=O)n(CC4(O)CCN(C(=O)[C@@H](CCCNC(=O)c5ccc6c(Cl)c7c(nc6c5)CCCC7)Cc5ccccc5)CC4)cnc3c2)CC1` [XL177A] was tested, and the “transcription of p53 target genes (CDKN1A, GADD45A, BAX, DDB2)” value [1] was “stimulating transcription of p53 target genes”, the “labeling of USP7 catalytic domain by MS” value [2] was “Quantitative labeling” and the “effect of TP53 KO on growth suppression” value [3] was “completely rescued TC32 growth except at high doses”. The “Run 1 100nM 1” value [4, 5] was 201720, the “Run 1 100nM 2” value [4, 5] was 193904 and the “Run 1 100nM 3” value [4, 5] was 198261. For the same compound, the “Run 2 100nM 1” value [4, 5] was 185482, the “Run 2 100nM 2” value [4, 5] was 186116 and the “Run 2 100nM 3” value [4, 5] was 181339. The “Run 1 1uM 1” value [4, 6] was 206285, the “Run 1 1uM 2” value [4, 6] was 969196 and the “Run 1 1uM 3” value [4, 6] was 327663. The “Run 2 1uM 1” value [4, 6] was 160877, the “Run 2 1uM 2” value [4, 6] was 741636 and the “Run 2 1uM 3” value [4, 6] was 244076. The “Run 1 10uM 1” value [4, 7] was 152789, the “Run 1 10uM 2” value [4, 7] was 213160 and the “Run 2 10uM 1” value [4, 7] was 210280. For the same compound, the “Run 2 10uM 2” value [4, 7] was 197443, the “AVE 100nM 1” value [4, 8] was 193601 and the “AVE 100nM 2” value [4, 8] was 190010. For the same compound, the “AVE 100nM 3” value [4, 8] was 189800, the “AVE 1uM 1” value [4, 9] was 183581 and the “AVE 1uM 2” value [4, 9] was 855416. The “AVE 1uM 3” value [4, 9] was 285870, the “AVE 10uM 1” value [4, 10] was 181534 and the “AVE 10uM 2” value [4, 10] was 205302.
